Paper PMC9405973, “Altered Conformational Landscape upon Sensing Guanine Nucleotides in a Disease Mutant of Elongation Factor-like 1 (EFL1) GTPase” (Biomolecules, 2022)
Several values for one entry are separate records, joined by “and”; a condition that tells them apart may be missing. Equal values may be shown once. Read-outs that look alike come from different tables or passages of the source.

Columns and labels:
Efl1 R1086Q•Sdo1 = molecular target: T1, Efl1 R1086Q•Sdo1 (Saccharomyces cerevisiae, UniProt P53893, R1086Q); experiment: ITC: binding of guanine nucleotides to pre-formed complex Efl1 R1086Q•Sdo1; details: for ΔCpb: from ΔHb at 25–35 °C; for -TΔs / Δg / Δh / κ (heterotropic cooperativity): Effect of Mg^2+
T1 construct: made in house; host or cells: Efl1: Saccharomyces cerevisiae; Sdo1: Escherichia coli C41
Protocol: All calorimetric measurements were carried out using MicroCal^TM iTC200 System (GE Healthcare, Northampton, MA, USA) in a temperature range of 25–35 °C. Experiments were performed in a buffer consisting of 50 mM Tris-HCl (pH 8.0), 150 mM NaCl, 100 µM DTT, and 5% glycerol. In the titrations with Mg^2+-bound nucleotides, both the ligand and protein solutions contained 5 mM MgCl2. In the case of titrations with Mg^2+-free nucleotide, both the ligand and protein solutions were supplemented with 2 mM EDTA to sequester any residual trace of metal ions in solution. Protein samples and ligands were prepared in the exact same buffer prior to each titration. Protein concentration in the cell comprised 30–50 µM GTPase, while the ligand concentration in the syringe was 2–3 mM for GTP, MgGTP, GDP, and MgGDP. To ensure measuring the interaction of the complex Efl1 R1086Q•Sdo1 with the nucleotide, an eight-fold concentration excess of Sdo1 was used compared with that of the enzyme. […] The titration schedule consisted of 15–20 consecutive injections of the ligand with 5 min intervals between injections and a stirring rate of 700 rpm. The dilution heat of the ligand was obtained by adding the ligand to a buffer solution under identical conditions and with the same injection schedule used for the protein sample. All samples were degassed for 10 min prior to the experiment.
The binding isotherms obtained for the isolated GTPase in the presence of Mg(II) were analysed using a ternary model in which the protein can bind to the free nucleotide (G(D)TP) or that bound to one magnesium ion (MgG(D)TP); additionally, GTP may also exist in the form of Mg2GTP, which is not recognised by the protein. The derivation of this coupled-equilibria model can be reviewed in [6, 31]. The binding constant (Kb), the enthalpy change (∆Hb), and the stoichiometry (n) were obtained with the non-linear routines implemented in Origin 5.0 (OriginLab, Co., Northampton, MA, USA) using a one-binding-site model as described in [32, 33]. The heterotropic cooperativity for the binding of guanine nucleotides and Sdo1 to Efl1 R1086Q were calculated as previously described in [6, 32]. The cooperative effects of Mg(II) on the binding of guanine nucleotides to Efl1 R1086Q alone and bound to Sdo1 were calculated as follows:κ = KE-MG/KE-G κ = KES-MG/KES-G Δh = ΔHE-MG − ΔHE-G Δh = ΔHES-MG − ΔHES-G where subscripts E-MG and E-G stand for the association of the metal-bound and metal-free guanine nucleotide with mutant Efl1, respectively. Corresponding expressions applied to the heterotropic cooperativity of the binding of nucleotides to the preformed complex, Efl1•Sdo1 (ES).
The impact of Sdo1 on the binding of Efl1 R1086Q to guanine nucleotides in the presence of magnesium ions is contained in KES-MG and ΔHES-MG relative to the KE-S and ΔHE-S values; analogous ratios report the effects in the absence of Mg(II):κ = KES-MG/KE-S κ = KES-G/KE-G Δh = ΔHES-MG − ΔHE-S Δh = ΔHES-G − ΔHE-G
The corresponding cooperative entropy change was calculated as:TΔs = Δh − Δg = Δh + RTlnκ
The detailed methodology and equations to compute the changes in the accessible surface area (∆ASA) of the GTPase upon binding to nucleotides and the ∆S energetic-based parameters are reported in [6]. Briefly, the water-accessible areas (ASAs) were computed using programme NACCESS, while the changes in accessible surface area (ΔASA) upon the formation of each GTPase–nucleotide complex were estimated considering the difference between the complex and the sum of the free interacting partners. The calculated polar (ΔASAp) and apolar (ΔASAap) area changes were subsequently used to estimate the free molecular partners. […]

wild-type Efl1 = details: cited from earlier work; for -TΔSb / Kd / ΔGb / ΔHb / ΔCpb: guanine nucleotide
wild-type Efl1•Sdo1 = test system: wild-type Efl1•Sdo1; design: method as in PMID 30780079; details: −Mg^2+, cited from earlier work
[1] = Effect of Mg^2+, wild-type Efl1 − Sdo1, 30 °C
[2] = Effect of Sdo1, wild-type Efl1 − Mg^2+, 30 °C

T1 sequence (P53893 whole entry R1086Q): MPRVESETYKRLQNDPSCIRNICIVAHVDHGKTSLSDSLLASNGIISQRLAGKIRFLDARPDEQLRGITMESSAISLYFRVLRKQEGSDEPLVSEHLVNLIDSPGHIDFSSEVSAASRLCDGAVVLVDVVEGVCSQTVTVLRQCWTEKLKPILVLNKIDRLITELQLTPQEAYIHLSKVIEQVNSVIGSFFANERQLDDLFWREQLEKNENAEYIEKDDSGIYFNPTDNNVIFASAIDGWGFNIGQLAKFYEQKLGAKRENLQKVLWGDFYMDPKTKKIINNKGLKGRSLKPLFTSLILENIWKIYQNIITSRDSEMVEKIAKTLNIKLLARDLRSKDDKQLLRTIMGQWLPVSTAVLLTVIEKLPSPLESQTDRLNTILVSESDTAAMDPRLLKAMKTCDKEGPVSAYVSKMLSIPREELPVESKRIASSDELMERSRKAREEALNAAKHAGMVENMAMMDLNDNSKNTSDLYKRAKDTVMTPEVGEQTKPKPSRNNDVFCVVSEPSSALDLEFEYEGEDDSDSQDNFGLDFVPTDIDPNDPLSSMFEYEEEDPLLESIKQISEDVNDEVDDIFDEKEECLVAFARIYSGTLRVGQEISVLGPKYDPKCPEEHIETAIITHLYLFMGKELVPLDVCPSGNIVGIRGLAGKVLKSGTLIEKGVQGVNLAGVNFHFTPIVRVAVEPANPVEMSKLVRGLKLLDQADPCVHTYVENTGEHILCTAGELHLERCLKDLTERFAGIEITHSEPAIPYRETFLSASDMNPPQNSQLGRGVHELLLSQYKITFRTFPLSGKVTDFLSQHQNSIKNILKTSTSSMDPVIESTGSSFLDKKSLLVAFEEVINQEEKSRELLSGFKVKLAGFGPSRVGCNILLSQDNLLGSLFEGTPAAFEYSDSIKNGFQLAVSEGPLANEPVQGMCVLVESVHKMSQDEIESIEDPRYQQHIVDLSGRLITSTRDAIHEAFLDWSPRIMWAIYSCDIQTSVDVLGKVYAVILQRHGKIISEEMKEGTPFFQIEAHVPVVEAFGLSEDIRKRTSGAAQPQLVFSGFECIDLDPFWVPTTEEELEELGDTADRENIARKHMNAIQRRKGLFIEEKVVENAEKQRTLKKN
T1 sequence (Q07953 whole entry, further chain): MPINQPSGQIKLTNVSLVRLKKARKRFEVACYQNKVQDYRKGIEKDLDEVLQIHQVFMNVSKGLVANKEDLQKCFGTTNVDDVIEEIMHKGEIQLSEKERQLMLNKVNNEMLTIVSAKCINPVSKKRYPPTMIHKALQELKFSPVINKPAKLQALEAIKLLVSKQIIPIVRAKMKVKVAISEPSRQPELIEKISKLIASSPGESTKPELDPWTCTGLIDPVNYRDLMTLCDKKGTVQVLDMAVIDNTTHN

Nc1nc2c(ncn2[C@@H]2O[C@H](COP(=O)(O)OP(=O)(O)O)[C@@H](O)[C@H]2O)c(=O)[nH]1 [GDP]
fold greater affinity in the presence of magnesium ions (Efl1 R1086Q•Sdo1; +Mg^2+ vs −Mg^2+): 2–5 times | -TΔSb (Efl1 R1086Q•Sdo1; +Mg^2+, 25 °C): -4.7 kcal/mol | ΔGb (Efl1 R1086Q•Sdo1; +Mg^2+, 25 °C): -6.9 kcal/mol | ΔHb (Efl1 R1086Q•Sdo1; +Mg^2+, 25 °C): -2.1 ± 0.08 kcal/mol | -TΔSb (Efl1 R1086Q•Sdo1; +Mg^2+, 30 °C): -3.3 kcal/mol | Nconfres (number of residues changing conformation, absolute value) (Efl1 R1086Q•Sdo1; +Mg^2+, 30 °C): 25 | Nconfrotb (number of routable bonds changing conformation, absolute value) (Efl1 R1086Q•Sdo1; +Mg^2+, 30 °C): 34 | ΔCpconf (Efl1 R1086Q•Sdo1; +Mg^2+, 30 °C): −267 cal mol^−1 K^−1 | ΔCprb (Efl1 R1086Q•Sdo1; +Mg^2+, 30 °C): −48 cal mol^−1 K^−1 | ΔGb (Efl1 R1086Q•Sdo1; +Mg^2+, 30 °C): -7.1 kcal/mol | ΔHb (Efl1 R1086Q•Sdo1; +Mg^2+, 30 °C): -3.8 ± 0.05 kcal/mol | ΔSb (Efl1 R1086Q•Sdo1; +Mg^2+, 30 °C): 11 cal mol^−1 K^−1 | ΔSconf (Efl1 R1086Q•Sdo1; +Mg^2+, 30 °C): −57 cal mol^−1 K^−1 | ΔSsolv (Efl1 R1086Q•Sdo1; +Mg^2+, 30 °C): 75 cal mol^−1 K^−1 | −ΔASAconf (Efl1 R1086Q•Sdo1; +Mg^2+, 30 °C): 1198 Å^2 | -TΔSb (Efl1 R1086Q•Sdo1; +Mg^2+, 35 °C): -2.0 kcal/mol | ΔGb (Efl1 R1086Q•Sdo1; +Mg^2+, 35 °C): -7.3 kcal/mol | ΔHb (Efl1 R1086Q•Sdo1; +Mg^2+, 35 °C): -5.3 ± 0.11 kcal/mol | ΔCpb (Efl1 R1086Q•Sdo1; +Mg^2+): −315 cal mol^−1 K^−1 and −315 ± 9 cal mol^−1 K^−1 | -TΔs (Efl1 R1086Q•Sdo1; Efl1 R1086Q + Sdo1, 25 °C): -0.7 kcal/mol | Δg (Efl1 R1086Q•Sdo1; Efl1 R1086Q + Sdo1, 25 °C): -0.4 kcal/mol | Δh (Efl1 R1086Q•Sdo1; Efl1 R1086Q + Sdo1, 25 °C): 0.3 kcal/mol | κ (heterotropic cooperativity) (Efl1 R1086Q•Sdo1; Efl1 R1086Q + Sdo1, 25 °C): 1.9 | -TΔs (Efl1 R1086Q•Sdo1; Efl1 R1086Q + Sdo1, 30 °C): -2.4 kcal/mol | Δg (Efl1 R1086Q•Sdo1; Efl1 R1086Q + Sdo1, 30 °C): -0.8 kcal/mol | Δh (Efl1 R1086Q•Sdo1; Efl1 R1086Q + Sdo1, 30 °C): 1.6 kcal/mol | κ (heterotropic cooperativity) (Efl1 R1086Q•Sdo1; Efl1 R1086Q + Sdo1, 30 °C): 3.7 | -TΔs (Efl1 R1086Q•Sdo1; Efl1 R1086Q + Sdo1, 35 °C): -3.7 kcal/mol | Δg (Efl1 R1086Q•Sdo1; Efl1 R1086Q + Sdo1, 35 °C): -1.0 kcal/mol | Δh (Efl1 R1086Q•Sdo1; Efl1 R1086Q + Sdo1, 35 °C): 2.7 kcal/mol | κ (heterotropic cooperativity) (Efl1 R1086Q•Sdo1; Efl1 R1086Q + Sdo1, 35 °C): 5.4 | Kd (Efl1 R1086Q•Sdo1; +Mg^2+, 25 °C): 9 ± 2 µM | Kd (Efl1 R1086Q•Sdo1; +Mg^2+, 30 °C): 8 ± 1 µM | Kd (Efl1 R1086Q•Sdo1; +Mg^2+, 35 °C): 6 ± 1 µM | Kd (Efl1 R1086Q•Sdo1; −Mg^2+, 25 °C): 17 ± 0.5 µM | Kd (Efl1 R1086Q•Sdo1; −Mg^2+, 30 °C): 30 ± 4 µM | Kd (Efl1 R1086Q•Sdo1; −Mg^2+, 35 °C): 34 ± 5 µM | -TΔSb (Efl1 R1086Q•Sdo1; −Mg^2+, 25 °C): -4.0 kcal/mol | ΔGb (Efl1 R1086Q•Sdo1; −Mg^2+, 25 °C): -6.5 kcal/mol | ΔHb (Efl1 R1086Q•Sdo1; −Mg^2+, 25 °C): -2.5 ± 0.4 kcal/mol | -TΔSb (Efl1 R1086Q•Sdo1; −Mg^2+, 30 °C): -1.0 kcal/mol | Nconfres (number of residues changing conformation, absolute value) (Efl1 R1086Q•Sdo1; −Mg^2+, 30 °C): 50 | Nconfrotb (number of routable bonds changing conformation, absolute value) (Efl1 R1086Q•Sdo1; −Mg^2+, 30 °C): 72 | ΔCpconf (Efl1 R1086Q•Sdo1; −Mg^2+, 30 °C): −520 cal mol^−1 K^−1 | ΔGb (Efl1 R1086Q•Sdo1; −Mg^2+, 30 °C): -6.3 kcal/mol | ΔHb (Efl1 R1086Q•Sdo1; −Mg^2+, 30 °C): -5.4 ± 0.6 kcal/mol | ΔSb (Efl1 R1086Q•Sdo1; −Mg^2+, 30 °C): 3 cal mol^−1 K^−1 | ΔSconf (Efl1 R1086Q•Sdo1; −Mg^2+, 30 °C): −121 cal mol^−1 K^−1 | ΔSsolv (Efl1 R1086Q•Sdo1; −Mg^2+, 30 °C): 132 cal mol^−1 K^−1 | −ΔASAconf (Efl1 R1086Q•Sdo1; −Mg^2+, 30 °C): 2334 Å^2 | -TΔSb (Efl1 R1086Q•Sdo1; −Mg^2+, 35 °C): 1.7 kcal/mol | ΔGb (Efl1 R1086Q•Sdo1; −Mg^2+, 35 °C): -6.30 kcal/mol | ΔHb (Efl1 R1086Q•Sdo1; −Mg^2+, 35 °C): -8.0 ± 0.8 kcal/mol | ΔCpb (Efl1 R1086Q•Sdo1; −Mg^2+): −550 cal mol^−1 K^−1 and −550 ± 18 cal mol^−1 K^−1 | -TΔs (wild-type Efl1; [1]): -0.5 kcal/mol | Δg (wild-type Efl1; [1]): 0.6 kcal/mol | Δh (wild-type Efl1; [1]): 1.1 kcal/mol | κ (heterotropic cooperativity) (wild-type Efl1; [1]): 0.4 | -TΔs (wild-type Efl1; [2]): 1.5 kcal/mol | Δg (wild-type Efl1; [2]): 0.8 kcal/mol | Δh (wild-type Efl1; [2]): -0.7 kcal/mol | κ (heterotropic cooperativity) (wild-type Efl1; [2]): 0.3 | -TΔSb (wild-type Efl1; +Mg^2+, 30 °C): -0.5 kcal/mol | Kd (wild-type Efl1; +Mg^2+, 30 °C): 37 µM | ΔGb (wild-type Efl1; +Mg^2+, 30 °C): -6.1 kcal/mol | ΔHb (wild-type Efl1; +Mg^2+, 30 °C): -5.6 ± 0.2 kcal/mol | ΔCpb (wild-type Efl1; +Mg^2+): −310 ± 5 cal mol^−1 K^−1 and −310 cal mol^−1 K^−1 | -TΔSb (wild-type Efl1; −Mg^2+, 30 °C): 0.0 kcal/mol | Kd (wild-type Efl1; −Mg^2+, 30 °C): 16 µM | ΔGb (wild-type Efl1; −Mg^2+, 30 °C): -6.7 kcal/mol | ΔHb (wild-type Efl1; −Mg^2+, 30 °C): -6.7 ± 0.3 kcal/mol | ΔCpb (wild-type Efl1; −Mg^2+): −318 ± 35 cal mol^−1 K^−1 and −318 cal mol^−1 K^−1 | -TΔSb (wild-type Efl1•Sdo1; 30 °C): 1.5 kcal/mol | Kd (wild-type Efl1•Sdo1; 30 °C): 52 µM | ΔGb (wild-type Efl1•Sdo1; 30 °C): -5.9 kcal/mol | ΔHb (wild-type Efl1•Sdo1; 30 °C): -7.4 ± 0.0 kcal/mol | ΔCpb (wild-type Efl1•Sdo1): −640 cal mol^−1 K^−1 and −640 ± 34 cal mol^−1 K^−1
